Values of other authors, collected in patent US7422793B2, “Non-toxic corrosion-protection rinses and seals based on rare earth elements” (University of Dayton, priority 2002, dated 2008).

details: fluoride preparative agents; at or near 25° C. and at or near pH 7; cited from earlier work

Q: With F[Si-2](F)(F)(F)(F)F.[Na+].[Na+] [Sodium hexafluorosilicate] as the compound, how does the “Solubility in Water” value read?
A: The value was 0.035 mol/L.

same assay, conditions: pH 7; cited from earlier work

Q: Which “Solubility in Water” value does the source give for [K+].[K+].[O]=[Sn]([O-])[O-] [Potassium stannate] here?
A: Its value is 3.7 × 10^0 mole/L.

Q: For [K+].[O-2].[O-2].[O-2].[Ta+5] [Potassium tantalate], which “Solubility in Water” value is on record?
A: Its value is 0.005 mol/L.

Q: With O=[Te](=O)([O-])[O-].[K+].[K+] [Potassium tellurate] as the compound, how does the “Solubility in Water” value read?
A: Its value is 0.01 mol/L.

Q: Which “Solubility in Water” value does the source give for F[B-](F)(F)F.[K+] [Potassium tetrafluoroborate] here?
A: Its value is 0.035 mol/L.

Q: For CCC[N+](CCC)(CCC)CCC.[O-][Cl+3]([O-])([O-])[O-] [Pr4N^+ perchlorate], which “Solubility in Water” value is on record?
A: The value was 0.1 mol/L.

Q: For O=[Se](=O)(O)O [Selenic acid], which “Solubility in Water” value is on record?
A: Its value is 60 wt. %.

Q: Which “Solubility in Water” value does the source give for F[Si-2](F)(F)(F)(F)F.[Ag+].[Ag+] [Silver (I) hexafluorosilicate] here?
A: Its value is 1 × 10^0 mole/L.

Q: For [Na+].[O]=[Al-]=[O] [Sodium aluminate], which “Solubility in Water” value is on record?
A: Its value is 1 × 10^0 mole/L.

Q: Which “Solubility in Water” value does the source give for [F][Nb-2]([F])([F])([F])([F])([F])[F].[Na+].[Na+] [Sodium heptafluoroniobate] here?
A: The value was 0.05 mol/L.

Q: With [F][Ta-2]([F])([F])([F])([F])([F])[F].[Na+].[Na+] [Sodium heptafluorotantalate] as the compound, how does the “Solubility in Water” value read?
A: The value was 0.05 mol/L.

Q: For [F][Al-3]([F])([F])([F])([F])[F].[Na+].[Na+].[Na+] [Sodium hexafluoroaluminate], which “Solubility in Water” value is on record?
A: Its value is 0.0029 mol/L.

Q: For [F][Sb-]([F])([F])([F])([F])[F].[Na+] [Sodium hexafluoroantimonate], which “Solubility in Water” value is on record?
A: Its value is 4.97 × 10^0 mole/L.

Q: For [F][Ge-2]([F])([F])([F])([F])[F].[Na+].[Na+] [Sodium hexafluorogermanate], which “Solubility in Water” value is on record?
A: The value was 0.01 mol/L.

Q: With [F][Hf-2]([F])([F])([F])([F])[F].[Na+].[Na+] [Sodium hexafluorohafnate] as the compound, how does the “Solubility in Water” value read?
A: The value was 0.07 mol/L.

Q: With [F-].[F-].[F-].[F-].[F-].[F-].[Na+].[Na+].[Sn+4] [Sodium hexafluorostannate] as the compound, how does the “Solubility in Water” value read?
A: Its value is 0.01 mol/L.

Q: Which “Solubility in Water” value does the source give for [F][Zr-2]([F])([F])([F])([F])[F].[Na+].[Na+] [Sodium hexafluorozirconate] here?
A: Its value is 0.06 mol/L.

Q: For [Na+].[Na+].[O]=[Mo](=[O])([O-])[O-] [Sodium molybdate], which “Solubility in Water” value is on record?
A: Its value is 215 mol/L.

Q: Which “Solubility in Water” value does the source give for [Na+].[O]=[Nb](=[O])[O-] [Sodium niobate] here?
A: The value was 0.059 mol/L.

Q: For [O-][Cl+3]([O-])([O-])O [Sodium perchlorate], which “Solubility in Water” value is on record?
A: Its value is 12 mol/L.

Q: With [Na+].[Na+].[O-][O-] [Sodium peroxide] as the compound, how does the “Solubility in Water” value read?
A: Its value is 1 × 10^0 mole/L.

Q: For O=[Se](=O)(O)O [Sodium selenate], which “Solubility in Water” value is on record?
A: Its value is 1.2 × 10^0 mole/L.

Q: With [Na+].[Na+].[O]=[Sn]([O-])[O-] [Sodium stannate] as the compound, how does the “Solubility in Water” value read?
A: The value was 2.3 × 10^0 mole/L.

Q: For [Na+].[O-2].[O-2].[O-2].[Ta+5] [Sodium tantalate], which “Solubility in Water” value is on record?
A: The value was 0.0055 mol/L.

Q: With [O-][Cl+2]([O-])[O-].[O-][Cl+2]([O-])[O-].[Sr+2] [Strontium chlorate] as the compound, how does the “Solubility in Water” value read?
A: Its value is 6.9 × 10^0 mole/L.

Q: Which “Solubility in Water” value does the source give for [O-][Cl+3]([O-])([O-])[O-].[O-][Cl+3]([O-])([O-])[O-].[Sr+2] [Strontium perchlorate] here?
A: Its value is 13 mol/L.

Q: Which “Solubility in Water” value does the source give for O[Te](O)(O)(O)(O)O [Telluric acid] here?
A: The value was 0.5 mol/L.

Q: With [O]=[W](=[O])([OH])[OH] [Tungstic acid] as the compound, how does the “Solubility in Water” value read?
A: The value was 0.8 mol/L.
